This note sets out measurements from patent publication US6949250B2, “Selective algaecides for control of cyanochloronta” (The United States of America as represented by the …, priority 2002, dated 2005).

≈ marks a conversion by molar mass, not a printed value. Like-named read-outs stand apart in the source and are kept apart here. A value given as a limit tells only on which side of the number the result lay.

The subject of experiment [1] is Oscillatoria perornata. The experiment can be described thus: Rapid bioassay screening for selective algicides (LOEC, LCIC). The class given is cell-based. Particulars: for minimal effective concentration: read-out: LOEC (lowest-observed-effect concentration), Oscillatoria perornata; for MIC: read-out: LCIC (lowest-complete-inhibition concentration), Oscillatoria perornata.
Excerpt: (§1) These were screened in the laboratory by the method of Schrader et al. (K. K. Schrader, M. Q. de Regt, C. S. Tucker and S. O. Duke, A rapid bioassay for selective algicides. Weed Technol. (1997), vol. 11, pp. 767-774) for algicidal activity.
(§2) The anthraquinone derivatives were screened for selective toxicity towards Oscillatoria perornata, previously isolated from a Mississippi catfish pond, using the method of Schrader et al. (1997). The green alga Selenastrum capricornutum (obtained from the United States Environmental Protection Agency, Corvallis, Oreg.) was used as the representative green algal species in the bioassay since it is a common species found in southeastern United States catfish ponds. Absorbance readings were graphed, and graphs were used to determine the LOEC (lowest-observed-effect concentration) and the LCIC (lowest-complete-inhibition concentration) for each anthraquinone analog. In addition, a 96-hour 50% inhibition concentration (IC50) was determined for DNA1-19-1 and DNA2-59-1 by using the method described by Schrader et al. (1998b). Stock solutions of DNA1-19-1 and DNA2-59-1 were prepared so that final concentrations screened for 96-hour IC50 determinations were as follows: 1) 0, 0.01, 0.033, 0.1, 0.333, 1.0, 3.3, and 10.0 μM DNA1-19-1 for both O. perornata and S. capricornutum; 2) 0, 0.003, 0.01, 0.033, 0.1, 0.333, 1.0, and 3.333 μM DNA2-59-1 for O. perornata; and 3) 0, 0.1, 0.333, 1.0, 3.333, 10.0, 33.333, and 100.0 μM DNA2-59-1 for S. capricornutum. Estimation of the IC50 was determined by plotting 96-hour absorbance readings against logarithmic dilution values of the anthraquinone analogs. The screening results of the anthraquinone derivatives and commercially available analogs of anthraquinone are presented in Tables 1 and 2, respectively. The results in Table 1 reveal that DNA1-19-1 and DNA2-59-1 are the most promising analogs since these two compounds had the lowest LOEC and LCIC values for O. perornata (10 nM and 100 nM, respectively). Based upon IC50 results in Table 3, DNA2-59-1 appears to be more toxic and selective towards O. perornata than DNA1-19-1.
as §2, with “(A rapid bioassay for selective algicides. Weed Technol. (1997), vol. 11, pp. 767-774).” for “(1997).”, “(K. K. Schradar, M. Q. de Regt, P. D. Tidwell, C. S. Tucker and S. O. Duke, Selective growth inhibition of the musty-odor producing cyanobacterium Oscillatoria cf. chalybea by natural compounds. Bull. Environ. Contam. Toxicol. (1998a), vol.60, pp. 651-658).” for “(1998b).”, “The screening results of the anthraquinone derivatives and commercially available analogs of anthraquinone are presented in Tables 1 and 2, respectively. The results in Table 1 reveal that DNA1-19-1 and DNA2-59-1 are the most promising analogs since these two compounds had the lowest LOEC and LCIC values for O. perornata (10 nM and 100 nM, respectively). Based upon IC50 results in Table 3, DNA2-59-1 appears to be more toxic and selective towards O. perornata than DNA1-19-1.” left out

Experiment [2] concerns Selenastrum capricornutum. The experiment is described as above. It counts as cell-based. Particulars: for MIC / minimal effective concentration: Selenastrum capricornutum; for MIC: read-out: LCIC (lowest-complete-inhibition concentration), Selenastrum capricornutum; for minimal effective concentration: read-out: LOEC (lowest-observed-effect concentration), Selenastrum capricornutum.
Excerpt: as §1, §2
as §2, with “(A rapid bioassay for selective algicides. Weed Technol. (1997), vol. 11, pp. 767-774).” for “(1997).”, “(K. K. Schradar, M. Q. de Regt, P. D. Tidwell, C. S. Tucker and S. O. Duke, Selective growth inhibition of the musty-odor producing cyanobacterium Oscillatoria cf. chalybea by natural compounds. Bull. Environ. Contam. Toxicol. (1998a), vol.60, pp. 651-658).” for “(1998b).”, “The screening results of the anthraquinone derivatives and commercially available analogs of anthraquinone are presented in Tables 1 and 2, respectively. The results in Table 1 reveal that DNA1-19-1 and DNA2-59-1 are the most promising analogs since these two compounds had the lowest LOEC and LCIC values for O. perornata (10 nM and 100 nM, respectively). Based upon IC50 results in Table 3, DNA2-59-1 appears to be more toxic and selective towards O. perornata than DNA1-19-1.” left out

Setting [3] is: Planktothrix perornata, rapid screening.

As for `CCN(CC)Cc1cccc2c1C(=O)c1ccccc1C2=O` [DNA4-39-1, 1-[Methylamino-N,N-(diethyl)]-9,10-anthraquinone monophosphate], in experiment [1] (rapid screening), the “LCIC (lowest-complete-inhibition concentration), Oscillatoria perornata” value is listed as 1,000 nM and the minimal effective concentration came to 0.1 µM. For the same compound, in experiment [2] (rapid screening), the “LCIC (lowest-complete-inhibition concentration), Selenastrum capricornutum” value was 10,000 nM and the “LOEC (lowest-observed-effect concentration), Selenastrum capricornutum” value (shortened to “LOEC … Selenastrum capricornutum”) is on record as 10,000 nM.

Take `CCN(CC)CCCNc1cccc2c1C(=O)c1ccccc1C2=O.O=P(O)(O)O` [DNA2-91-1, 1-amino-N-(propyl-3′-N,N-diethylamino)-9,10-anthraquinone phosphate]: in experiment [1] (rapid screening), the “LCIC (lowest-complete-inhibition concentration), Oscillatoria perornata” value is listed as 10,000 nM and the “LOEC (lowest-observed-effect concentration), Oscillatoria perornata” value (“LOEC … Oscillatoria perornata” for short) is listed as 10,000 nM. In addition, in experiment [2] (rapid screening), the “LCIC (lowest-complete-inhibition concentration), Selenastrum capricornutum” value is listed as 100,000 nM and the “LOEC … Selenastrum capricornutum” value is 100,000 nM.

In the case of `Nc1cccc2c1C(=O)c1ccccc1C2=O` [1-aminoanthraquinone, reference compound], the values for the MIC in experiment [1] (setting [3]) and in experiment [2] (rapid screening) were 100 µM (≈ 22.3 µg/mL) and above 100 µM, respectively.

For the compound `COCCOCCOCCOCCOc1cccc2c1C(=O)c1ccccc1C2=O` [DNA3-53-1, 1-[2-[2-[2-(2-Methoxyethoxy)ethoxy]ethoxy]ethoxy]-9,10-anthraquinone], the MIC in experiment [1] (setting [3]) is 100 µM (≈ 41.4 µg/mL); in experiment [2] (rapid screening), above 100 µM. In addition, the minimal effective concentration in experiment [1] (setting [3]) came out at 10 µM; in experiment [2] (rapid screening), 100 µM.

With `Nc1ccc2c(c1)C(=O)c1ccccc1C2=O` [2-aminoanthraquinone, reference compound], the MIC in experiment [1] (setting [3]) and in experiment [2] (rapid screening) was above 100 µM in each case.

For the compound `CCCCCNCc1ccc2c(c1)C(=O)c1ccccc1C2=O.O=P(O)(O)O` [DNA2-55-1, 2-[Methylamino-N-(pentyl)]-9,10-anthraquinone monophosphate], in experiment [1] (rapid screening), the “LCIC (lowest-complete-inhibition concentration), Oscillatoria perornata” value is reported as 1,000 nM and the “LOEC … Oscillatoria perornata” value was 1,000 nM. Besides, in experiment [2] (rapid screening), the “LCIC (lowest-complete-inhibition concentration), Selenastrum capricornutum” value is on record as 100,000 nM and the “LOEC … Selenastrum capricornutum” value is 100,000 nM.

Take `O=C1c2ccccc2C(=O)c2cc(COCCOCCOCCOCCO)ccc21` [DNA3-59-1, 2-Methylene-[2-[2-[2-(2-hydroxyethoxy)ethoxy]ethoxy]ethoxy]-9,10-anthraquinone]: in experiment [1] (rapid screening), the “LCIC (lowest-complete-inhibition concentration), Oscillatoria perornata” value is reported as 100,000 nM and the minimal effective concentration stood at 0.1 µM. In experiment [2] (rapid screening), the “LCIC (lowest-complete-inhibition concentration), Selenastrum capricornutum” value is given as >100,000 nM and the “LOEC … Selenastrum capricornutum” value is on record as >100,000 nM.

In the case of `COCCOCCOCCOc1cccc2c1C(=O)c1ccccc1C2=O` [DNA3-11-1, 1-[2-[2-(2-Methoxyethoxy)ethoxy]ethoxy]-9,10-anthraquinone], the MIC was 10 µM (≈ 3.7 µg/mL) in experiment [1] (setting [3]) and above 100 µM in experiment [2] (rapid screening). Moreover, the minimal effective concentration in experiment [1] (setting [3]) was 10 µM; in experiment [2] (rapid screening), above 100 µM.

`O=C1c2ccccc2C(=O)c2c(OCCOCCOCCO)cccc21` [DNA3-15-1, 1-[2-[2-(2-Hydroxyethoxy)ethoxy]ethoxy]-9,10-anthraquinone]: in experiment [1] (setting [3]), the MIC is 10 µM (≈ 3.56 µg/mL) and the minimal effective concentration was 10 µM. For the same compound, in experiment [2] (rapid screening), the MIC is above 100 µM and the minimal effective concentration amounted to 0.01 µM.

In the case of `CCCNCc1ccc2c(c1)C(=O)c1ccccc1C2=O.O=P(O)(O)O` [DNA3-31-1, 2-[Methylamino-N-(propyl)]-9,10-anthraquinone monophosphate], in experiment [1] (rapid screening), the “LCIC (lowest-complete-inhibition concentration), Oscillatoria perornata” value was 1,000 nM and the “LOEC … Oscillatoria perornata” value is recorded as 1,000 nM. Besides, in experiment [2] (rapid screening), the “LCIC (lowest-complete-inhibition concentration), Selenastrum capricornutum” value was 10,000 nM and the “LOEC … Selenastrum capricornutum” value was 10,000 nM.

For the compound `CCN(CC)CCCNC(C)c1ccc2c(c1)C(=O)c1ccccc1C2=O` (stereo not shown) [DNA2-87-1, 2-[1′-Amino-N-(propyl-3″-N,N-diethylamino)ethyl]-9,10-anthraquinone], in experiment [1] (rapid screening), the “LCIC (lowest-complete-inhibition concentration), Oscillatoria perornata” value is listed as 100,000 nM and the “LOEC … Oscillatoria perornata” value is 1,000 nM. Also, in experiment [2] (rapid screening), the “LCIC (lowest-complete-inhibition concentration), Selenastrum capricornutum” value is recorded as 100,000 nM and the “LOEC … Selenastrum capricornutum” value was 100,000 nM.

With `CNc1cccc2c1C(=O)c1ccccc1C2=O` [1-(methylamino) anthraquinone, reference compound], the MIC was 100 µM (≈ 23.7 µg/mL) in experiment [1] (Planktothrix perornata) and above 100 µM in experiment [2].

Consider `CCCCN(CCCC)Cc1ccc2c(c1)C(=O)c1ccccc1C2=O.O=P(O)(O)O` [DNA2-57-1, 2-[Methylamino-N,N-(dibutyl)]-9,10-anthraquinone monophosphate], for which, in experiment [1] (rapid screening), the “LCIC (lowest-complete-inhibition concentration), Oscillatoria perornata” value is given as 1,000 nM and the “LOEC … Oscillatoria perornata” value is 1,000 nM. Moreover, in experiment [2] (rapid screening), the “LCIC (lowest-complete-inhibition concentration), Selenastrum capricornutum” value turned out to be 1e+06 nM and the “LOEC … Selenastrum capricornutum” value is listed as 100,000 nM.

Consider `CCNCc1ccc2c(c1)C(=O)c1ccccc1C2=O.O=P(O)(O)O` [DNA3-17-1, 2-[Methylamino-N-(ethyl)]-9,10-anthraquinone monophosphate], for which, in experiment [1] (rapid screening), the “LCIC (lowest-complete-inhibition concentration), Oscillatoria perornata” value is listed as 1,000 nM and the “LOEC … Oscillatoria perornata” value is recorded as 1,000 nM. Also, in experiment [2] (rapid screening), the “LCIC (lowest-complete-inhibition concentration), Selenastrum capricornutum” value is 10,000 nM and the “LOEC … Selenastrum capricornutum” value was 10,000 nM.

For `O=C1c2ccccc2C(=O)c2cc(CNC3CC3)ccc21.O=P(O)(O)O` [DNA3-35-1, 2-[Methylamino-N-(cyclopropyl)]-9,10-anthraquinone monophosphate], in experiment [1] (rapid screening), the “LCIC (lowest-complete-inhibition concentration), Oscillatoria perornata” value was 1,000 nM and the “LOEC … Oscillatoria perornata” value is recorded as 1,000 nM. In addition, in experiment [2] (rapid screening), the “LCIC (lowest-complete-inhibition concentration), Selenastrum capricornutum” value is reported as 100,000 nM and the “LOEC … Selenastrum capricornutum” value is reported as 10,000 nM.

Regarding `COCCOc1ccc2c(c1)C(=O)c1ccccc1C2=O` [DNA2-97-2, 2-(2-Methoxyethoxy)-9,10-anthraquinone], in experiment [1] (setting [3]), the MIC was 10 µM (≈ 2.82 µg/mL) and the minimal effective concentration was 10 µM. In addition, in experiment [2] (rapid screening), the MIC is above 100 µM and the minimal effective concentration is above 100 µM.

As to `CC(C)NC(C)c1ccc2c(c1)C(=O)c1ccccc1C2=O` (stereo not shown) [DNA2-89-1, 2-[1′-Amino-N-(1′-methylethyl)ethyl]-9,10-anthraquinone 9,10-anthraquinone], in experiment [1] (rapid screening), the “LCIC (lowest-complete-inhibition concentration), Oscillatoria perornata” value is reported as 1,000 nM and the “LOEC … Oscillatoria perornata” value is listed as 1,000 nM. Also, in experiment [2] (rapid screening), the “LCIC (lowest-complete-inhibition concentration), Selenastrum capricornutum” value was 100,000 nM and the “LOEC … Selenastrum capricornutum” value was 100,000 nM.

For `O=C1c2cccc(S(=O)(=O)O)c2C(=O)c2cccc(S(=O)(=O)O)c21` [anthraquinone-1,5-disulfonic acid, reference compound], the MIC in experiment [1] (setting [3]) and in experiment [2] (rapid screening) was above 1000 µM throughout.
